# Experimental data: a melting point compilation (Tetko et al.; mined from patent text by program, amines drawn as free bases though some values may be those of a salt)
row,melting point [°C],SMILES
1,131 to 132,COC(=O)C(C)(C)Cc1cc2cc(OCc3ccc4ccccc4n3)ccc2[nH]1
2,180 to 182,O=[N+]([O-])c1cc(N2CCNCC2)ccc1S(=O)(=O)c1ccccc1
3,80 to 81,CCC1(CC)C(=O)c2cc(OC)c(C)c(C)c2C1=O
4,159 to 160,O=Cc1c(-c2ccccc2)nn(-c2ccccc2)c1-c1ccccc1
5,139 to 140,COc1cccc(C(=O)O)c1-c1ccccc1OC(C)C
6,200 to 201,C=C1C(O)CC(OC(C)=O)C2(C)C1CC1(C(C)(C)O)CC(O)C(C)=C1C(OC(=O)c1ccccc1)C2OC(C)=O (stereo not drawn)
7,130 to 132,Cc1c(C)c2c(c(C)c1N)CC(C)(CN1CCN(CC(c3ccccc3)c3ccccc3)CC1)O2 (stereo not drawn)
8,108,O=C(Cl)c1cc([N+](=O)[O-])cc2c1OCCO2
9,96 to 98,CCOc1nc(C(F)(F)F)cc(=O)n1-c1cc(C(=O)OC)c(Cl)cc1F
10,109 to 111,COC(=O)c1c(Br)ccc2nn(C)c(C)c12
11,211 to 213,CCOC(=O)C1=C(C(C)C)Nc2n[nH]cc2C1c1ccccc1Cl (stereo not drawn)
12,82 to 83,Cc1cc2c(c(C)c1NCc1ccccc1)C(c1ccc(C(C)C)cc1)CO2 (stereo not drawn)
13,88 to 92,CN(C)CC(=O)N1CCC(c2cc(F)ccc2F)(S(=O)(=O)c2ccc(Cl)cc2)CC1
14,59,COc1ccc2c(c1)C(=O)C(CC=O)C2 (racemic)
15,172 to 174,COC1=NS(=O)(=O)N=C1NCCCCC#CCN(C)C
16,105 to 106,CCOC(=O)Cc1nc(-c2ccc(Cl)cc2)oc1-c1ccco1
17,231,FC(F)(F)c1ccc(-c2cc(C(F)(F)F)n3cnc(-c4cccnc4)c3n2)cc1
18,117 to 119,O=C(C=Cc1cccnc1)c1ccccc1OCc1ccccc1
19,98 to 100,CCCC(Oc1cccc(-c2noc(C)n2)c1)C(=O)O (stereo not drawn)
20,201 to 203,CCNC1CCN(c2c(F)cc3c(=O)c(C(=O)O)cn(C4CC4)c3c2C)CC1(C)C (stereo not drawn)
21,118 to 127,CCCCC(=O)NC(C(=O)OCc1ccccc1)C(C)C (stereo not drawn)
22,52 to 56,COc1ccc(C(=C(c2ccccc2)C(F)(F)F)c2ccc(F)cc2)cc1
23,172 to 173,O=C1NCC2CC1c1ccccc12 (stereo not drawn)
24,136 to 138,Cc1ccc(S(=O)(=O)NCCC(C(=O)OC(C)(C)C)C2(CC(C)C)CCN(CCc3ccccc3)C2=O)cc1 (stereo not drawn)
25,44 to 45,OCCc1ccc(-c2ccc(F)cc2F)c(F)c1

row,melting point [°C],SMILES
1,192,Cn1ncnc1COc1nn2c(-c3ccccc3)nnc2cc1C1CCCCC1
2,177 to 178,Cn1nc(N)c2sc3ccccc3c21
3,274 to 276,Nc1ncc2cc(-c3c(Cl)cccc3Cl)c(=O)n(Cc3c(Cl)cccc3Cl)c2n1
4,> 250,NCC1Cc2cc(Cl)cc(-c3cccnc3)c2O1 (stereo not drawn)
5,79 to 81,CN(C)C(=S)SC(C[N+](=O)[O-])c1ccc(Br)cc1 (stereo not drawn)
6,165 to 168,O=C1Nc2ccccc2N(C(=O)Cc2ccccc2)c2cscc21
7,65 to 67,Cn1cc(C2=CCC3(CC2)OCCO3)c2cc(C#N)ccc21
8,70 to 71,O=C(CCC(=O)N1CCCCC1)c1ccc(F)cc1
9,233 to 235,CS(=O)(=O)c1cccc(-c2cc(N3CCOCC3)cc(Nc3ccc(OC(F)(F)F)cc3)n2)c1
10,147 to 149,CNCCSC1=Cc2ccccc2Sc2ccc(O)cc21
11,55 to 59,O=[N+]([O-])c1cccc2c1OCCO2
12,97 to 98,O=C(CCCCCS(=O)(=O)Nc1ccccc1)NO
13,132 to 133,CCOC(=O)c1cc2c(C)cccc2n1CCCC(=O)O
14,224 to 226,COC(=O)n1cc2c(c1)-c1ccc(Cl)cc1C(c1ccccc1Cl)=[N+]([O-])C2
15,128 to 130,Cc1nc(N)c(N)cc1Cl
16,134 to 136,CC(=O)N1CCC(C(=O)c2ccc(Cl)c(Cl)c2)CC1
17,108 to 110,CCOCc1nc2c(N)nc(C)c(C)c2n1NC1CCCCC1
18,200 to 204,CC(=O)Nc1ccc(Sc2c(NCC3CC3)cc(C(=O)O)cc2S(N)(=O)=O)cc1
19,162 to 166,CCCCc1oc2ccccc2c1C(=O)NCc1ccc2c(-c3ccc(C)cc3)c(OCc3nnn[nH]3)ccc2c1
20,160 to 162,CC(C)(CCCCOc1cc(-c2ccccc2)cc(-c2ccccc2)n1)c1nnn[nH]1
21,151 to 153,Cc1ccccc1C(=O)c1cc2c(c(Br)c1O)CCCC2
22,128 to 129,Cc1cc(SC(C)C)c(NC(=O)CCCSc2nc3ccccc3o2)c(SC(C)C)n1
23,243 to 244,Nc1nc(-c2cccnc2Cl)c(-c2cccnc2Cl)o1
24,119 to 123,OCC1(n2nc3ccccc3n2)OCC1c1ccccc1 (stereo not drawn)
25,171,Nc1nnc(C(F)(F)C(Cl)Cl)o1

row,melting point [°C],SMILES
1,181,O=C1C=C(O)CC(c2ccc3c(c2)OCO3)C1 (stereo not drawn)
2,155,CC1NN(Cc2ccc(Cl)cc2)C(=O)NC1=O (stereo not drawn)
3,64 to 69,OC(CCl)(Cc1ccccc1Cl)c1ccc(Cl)cc1 (stereo not drawn)
4,209 to 211,N#Cc1c(Cl)cnc2cc(I)sc12
5,240,N#Cc1ccc2[nH]cc(-c3nc(-c4cccnc4)cs3)c2c1
6,154 to 155,CC(C(=O)O)c1ccc(-n2cc(Br)cn2)cc1 (stereo not drawn)
7,208 to 213,CC(C)(C)c1cc(NN=Cc2ccc(C(=O)O)cc2)cc(C(C)(C)C)c1
8,44 to 46,CC(=Cc1ccccc1)c1ccc2c(c1)OCCC2(C)C
9,157 to 158,O=C(CCc1oc(-n2cncn2)nc1-c1ccc(Cl)cc1)NCCCl
10,164,Cc1ccc(C2COc3c(ccc(O)c3O)C2)cc1 (stereo not drawn)
11,72 to 75,O=C1C(=C2CCCN2Cc2ccccc2)c2ccccc2N1c1cccc(Cl)c1
12,223 to 225,NS(=O)(=O)c1ccc(NCC(=O)NC2CCCCC2)cc1
13,168,Cc1cn2ccc(NC(=O)C(F)(F)F)c(I)c2n1
14,122 to 125,CC(=Cc1ccc(F)c(F)c1)C(=O)O
15,63 to 64,CCCCc1nn(-c2ccc(C(F)(F)F)cn2)cc1CCC(=O)OCC
16,68,CC(NC(=O)C(F)(F)F)C(=O)O (stereo not drawn)
17,158 to 164,O=C(Cc1c[nH]c2ccccc12)Nc1ccc(-n2nc(C3CC3)cc2C2CC2)cc1
18,215 to 219,Cc1cc(-c2ccc(S(C)(=O)=O)cc2)n(-c2ccc(-c3ccoc3)cc2)c1C
19,151 to 153,CC(C)(C)c1cc(C2=NOC(CCOc3ccc([N+](=O)[O-])cc3)C2)cc(C(C)(C)C)c1O (stereo not drawn)
20,129 to 130,O=Cc1ccc(N(c2ccccc2)c2ccccc2)cc1
21,109 to 110,COc1ccc(CC(=O)NCCc2ccc([N+](=O)[O-])cc2)cc1
22,80 to 82,CC(C)(CO)NC(=O)c1ccccc1
23,223 to 226,NS(=O)(=O)c1cc2[nH]c(Cc3ccccc3Cl)nc2cc1Cl
24,174 to 180,O=[N+]([O-])c1cc(S(=O)(=O)C(F)(F)F)c(-c2ccc(Cl)cc2)[nH]1
25,126 to 127,O=C1CCCC(n2nc(-c3c(-c4ccccc4)nn4ccccc34)ccc2=O)C1 (stereo not drawn)

row,melting point [°C],SMILES
1,78 to 80,CC(C)OC(=O)C=Cc1ccc(N)cc1
2,134 to 135,CC(=O)c1cn(Cc2ccc(F)cc2)c(=O)n(Cc2ccc(F)cc2)c1=O
3,113 to 114,COc1ccc(CCn2cc(C(=O)NCCN(C)C)c3nc4c(C)cccc4cc3c2=O)cc1OC
4,120,O=C(OCc1ccccc1)c1cc(C(=O)OCc2ccccc2)[nH]n1
5,227 to 228,COc1ccc2c(c1)C1=C(CC2)NC(=O)CC1
6,127,N#CC(C#N)(CC=C(Br)Br)Cc1ccc(OC(F)(F)F)cc1
7,197 to 201,O=C(CCC(NS(=O)(=O)c1ccc2oc3ccccc3c2c1)C(=O)O)NCCc1ccccc1 (stereo not drawn)
8,230 to 232,N#Cc1cnn2c(-c3ccccc3)ccnc12
9,153 to 154,CC1(C)Cc2sccc2C(=O)N1
10,107 to 108,CCCNC(=O)Oc1ccc(C(O)(CC)c2ccc(F)cc2)cc1 (stereo not drawn)
11,61 to 63,O=C1C(=Cc2ccccc2)N2CCC1C2 (stereo not drawn)
12,75 to 77,CNC(=O)ON=C(Nc1ccc(C(F)(F)F)cc1)C1=NN(c2ccc(Cl)cc2)C(c2ccc(F)cc2)C1 (stereo not drawn)
13,129 to 131,CC1(C2CCCC2)Cc2cc(OCC#N)c(Cl)c(Cl)c2C1=O (stereo not drawn)
14,184 to 185,C=CCOC(=O)/C(=N\O)c1csc(N)n1
15,215 to 220,Nc1nc(-n2cc(C(=O)O)c(=O)c3cc(F)c(N4CC(O)C4)c(Br)c32)c(F)cc1F
16,158 to 159,O=C(NCCCCCCCCCCCCNC(=O)c1ccc(OC(F)(F)F)cc1)c1ccc(OC(F)(F)F)cc1
17,160 to 166,CCCc1c(OCCCOc2ccc(O)cc2)ccc2c1OC(CCC(=O)O)(CCC(=O)O)CC2=O
18,76 to 77,COC1(c2cccc(OCc3ccc4ccccc4c3)c2)CCN(CC#N)C1 (stereo not drawn)
19,100 to 101,COc1ccc(CC(C)CC(=O)O)c(C(C)C)c1OC (stereo not drawn)
20,145 to 188,O=C(Nc1ccc(C(=O)N2Cc3ccccc3Oc3ccccc32)c(Cl)c1)c1ccccc1-c1ccccc1
21,134 to 135,O=[N+]([O-])c1ccc(Oc2ccccc2Oc2ccc([N+](=O)[O-])cc2)cc1
22,159 to 160,COC(=O)c1c(CSc2nccn2C)nc2cc(OC)c(OC)cc2c1-c1ccc(OC)c(OC)c1
23,165 to 167,CN(C)CCNc1ccc(-c2n[nH]c3ncccc23)cc1
24,175 to 178,COc1cc2c(cn1)CCCC2=NO

row,SMILES,melting point [°C]
1,CN1C(=O)CN=C(c2ccccc2F)c2cc(NC(=O)NC(C)(C)CO)ccc21,162 to 176
2,CCc1cccc2c(C(=O)c3cccc(Cl)c3Cl)c(C)n(CCCS(=O)(=O)N(C)C)c12,18
3,Cc1ncc2n1-c1ccccc1C(c1ccccc1)=NC2,180 to 182
4,O=C(OC1CCCCCC1)c1ncn2c1[C@@H]1CCCN1C(=O)c1c(Cl)cccc1-2,179 to 180
